Measurements as given in patent US7091205B2, “Use of tetramethylpyrazine in the treatment of brain tumor” (priority 2004, dated 2006).

Assays:
glioma cells = conditions: Ishiuchi et al., 2002; cited from earlier work
[1] = test system: glioma cells implanted in frontal cortex of Sprague-Dawley rats; assay: Survival time of rats implanted with glioma cells; assay type: in vivo, rat; conditions: 0.4 mg subcutaneous twice a day from the 8th day following implantation
Method: (§1) Sprague-Dawley (S.D.) rats obtained from the Animal Center of National Yang-Ming University were kept in the following conditions: 12 hours of artificial lightening per day; 22±2° C. air conditioning; sufficient water and food. Eight-week old female rats, weighing 250 to 300 g, were used in the experiments.
(§2) The rats were anesthetized with chloride hydrate (400 mg/Kg, i.p.) and immobilized on a stereotaxic apparatus (Narishige, Japan). The skin on the head was cut with scissors to expose the skull. Bregma was found as the reference point for the location of microinjection (three-dimensional orientation point: A: 0.7 mm, L; 2.0 mm, H: 2.0 mm). The location was marked with a pen, and the skull at the location was drilled with a drill. Glioma cells (10^6 cells) were injected (2 μl/3 mins; total 10 μl) into the frontal cortex of the left brain of the rats with a microinjector.
(§3) The rats were divided into two groups. […] The rats of the TMP group received TMP treatment (0.4 mg, subcutaneous injection, twice a day) from the 8th day following the implantation. The survival days of rats of the two groups were recorded.

rat C6 glioma cell line [2] = assay: Determination of Ca2+ permeability (Fura-2 AM, glutamate-induced Ca2+ increase); assay type: cell-based; conditions: 50 μM to 400 μM TMP, 24 hours; 200 μM glutamate for 20 seconds; p<0.05 vs control; FIG. 2
Method: (§4) The rat C6 glioma cell line was purchased from the Food Industry Research and Development Institute, Taiwan. The cell culture within the tubes was transferred into a 15 ml centrifugation tube and centrifuged at 900 rpm for 3 minutes. Resulted supernatant was removed and 4 ml 10% FBS-DMEM was added to the centrifugation tube and sufficiently mixed with the cell pellet. The cells were counted and cultured in a 24-well plate (2×10^4 cells per well) for subsequent in vitro experiments.
(§5) The cultured C6 glioma cells were treated with TMP (Fluka, F-87915) at final concentrations of 50 μM, 100 μM, 200 μM, and 400 μM for 24 hours.
The TMP-treated glioma cells were washed with running buffer for three times, put in a 5 μM Fura-2 AM solution for 30 minutes, and treated with 200 μM glutamate for 20 seconds. The change of Ca^2+ concentration within glioma cells was observed on a fluorescence microscope (IX-70, Olympus, Japan).

rat C6 glioma cell line [3] = assay: Determination of cell cycle (PI staining, flow cytometry); assay type: cell-based; conditions: 400 μM TMP, 24 hours; p<0.05 vs control; FIG. 3
Method: as §4, §5
The TMP-treated glioma cells were treated with trypsin/EDTA (Biochrom AG, L-2153), shaken off, collected in a 15 ml centrifugation tube, and centrifuged at 900 rpm for 3 minutes. The resulting supematant was removed and 1 ml PI solution (50 μg/ml PI, 0.1% sodium citrate, and 0.1% Triton X-100) was added. After one hour of dark incubation at room temperature, the intensity of PI fluorescence was read by flow cytometry (FACSort). In the G2/M phase, DNA has been replicated, and thus the intensity of PI fluorescence of cells in the G2/M phase should be two times of that of cells in the G1 phase.

rat C6 glioma cell line [4] = assay: Determination of cell death by propidium iodide fluorescence (flow cytometry); assay type: cell-based; conditions: 200 μM and 400 μM TMP, 24 hours; p<0.05 vs control; FIG. 1
Method: as §4, §5
The degree of damage to glioma cells was measured as the intensity of propidium iodide (PI) fluorescence. PI is a fluorescent dye that binds DNA, with an excitation wavelength of 485 nm and an emission wavelength of 620 nm. When a cell is damaged, the permeability of the cell membrane is increased and PI can enter the cell to bind DNA.
The TMP-treated glioma cells were treated with 5 ng/ml PI (Molecular Probes, P-1304) for 1 hour, and then washed with 0.1 M PBS. The intensity of PI fluorescence was read by flow cytometry (FACSort).

neurons = conditions: through protecting mitochondria and inhibiting free radical generation; Shih et al, 2002; cited from earlier work
[5] = test system: glioma cells implanted in frontal cortex of Sprague-Dawley rats; assay: Activity of glioma by micro positron emission tomography (18F-FDG); assay type: in vivo; conditions: 15th day following implantation; one rat; TMP from the 8th day; highly activated tumor still exists in control rat; FIG. 6 D to F
Method: as §1, §2, §3
To determine the activity of glioma cells in the rats, the activity profiles of the tumors were obtained by micro positron emission tomography (micro PET) on the 8th and 15th day following the implantation of glioma cells. […]

[6] = Tsai and Liang, 2001; cited from earlier work
[7] = Pang et al., 1996; cited from earlier work

Structure (SMILES)	proliferation of glioma cells (glioma cells)	survival time following implantation, half of the rats of the TMP group ([1]; FIG. 4(B))	survival time following implantation, all rats of the TMP group ([1]; control rats died after 15 to 22 days, FIG. 4)	Ca2+ concentration within glioma cells resulting from treatment with glutamate (rat C6 glioma cell line [2])	ratio of cells in the G2/M phase (rat C6 glioma cell line [3])	damage to glioma cells (intensity of PI fluorescence) (rat C6 glioma cell line [4])	excitotoxicity to neurons induced by kainite (neurons)	micro PET image of tumor activity [5]	crossing of the blood-brain barrier [6]	increase of the concentration of calcium [7]
C[C@]12N[C@H](Cc3ccccc31)c1ccccc12 [MK801]	can effectively inhibit the proliferation of glioma cells	–	–	–	–	–	–	–	–	–
Cc1nc(C)c(C)nc1C [TMP, tetramethylpyrazine]	–	40 days	at least 22 days	effectively reduced Ca^2+ concentration within glioma cells	effectively reduced the ratio of cells in the G2/M phase	resulted in glioma cell death	can reduce the excitotoxicity to neurons induced by kainite	no image of a highly activated tumor	can cross the blood-brain barrier	can inhibit the increase of the concentration of calcium
